assay: Water solubility / appearance and pH of solution on mixing, dilution and standing; format: physicochemical; settings: TEPA 2.0 g in water 94.0 g
Text: In Example 1 (within the scope of the invention), when LAS acid was neutralized with a polyamine (i.e., TEPA), it formed PAAS. As PAAS began forming, the solution became hazy. Upon further addition of the LAS acid, the hazy solution became a dispersion. Upon standing for hours, the dispersion formed a layer of sediment at the bottom of the beaker. Even a very diluted formulation (such as below 0.1%) was hazy.
The solution was clear at the all time over the entire pH range, leading to the conclusion that Na-LAS was fully ionized or disassociated.
Sodium xylenesulfonate was added to an aqueous PAAS dispersion to attempt to solubilize PAAS by ion-exchange and/or hydrotrope mechanism.
Example 1 was repeated, except that fatty acid was used in place of LAS acid. […]
This example investigated the solubilization of PAAS in water, with the aid of a solubiliser. A dispersion of PAAS (with LAS and fatty acid as conjugated acid) was mixed with Na-LES solution (59.5% Na-LES, 10% propylene glycol, 6.5% ethanol, and balance of water). […]

**Q.** Which Observations does the source give for `NCCNCCNCCNCCN` [TEPA, Tetraethylenepentamine] here?
**A.** Clear

assay: not given; settings: 0.01 N; cited from earlier work

**Q.** Which pH does the source give for `[Na+].[OH-]` [NaOH, sodium hydroxide] here?
**A.** 12.0

**Q.** Which pH does the source give for `[K+].[OH-]` [KOH, potassium hydroxide] here?
**A.** 12.0

same assay, conditions: 1.0 N aqueous solutions; cited from earlier work

**Q.** For `[Na+].[OH-]` [NaOH, sodium hydroxide], which pH is on record?
**A.** 14.0

**Q.** Which pH does the source give for `[K+].[OH-]` [KOH, potassium hydroxide] here?
**A.** 14.0

assay: not given; settings: * from Huntsman Technical Bulletin "Amine applications and properties data applications"; cited from earlier work

**Q.** Which pKa does the source give for `NCCNCCNCCN` [Triethylenetetramine (TETA), Triethylenetetramine] here?
**A.** 9.80*

**Q.** For `NCCN` [Ethylenediamine (EDA), Ethylenediamine], which pKa is on record?
**A.** 9.90*

same assay, conditions: according to McMurry, Organic Chemistry, p. 45, 1984; cited from earlier work

**Q.** Which pKa does the source give for ethoxide CH3CH2O^- here?
**A.** 16

same assay, conditions: from CRC Handbook of Chemistry and Physics, 83rd Edition; cited from earlier work

**Q.** For `COCCN` [2-mthyloxyethylamine], which pKa is on record?
**A.** 9.40

**Q.** For `CC(N)(O)CN` (centres unmarked) [1,2-diamino-2-propanol], which pKa1 is on record?
**A.** 9.69

**Q.** What about the pKa2 of the same compound?
**A.** 7.93

**Q.** With `NC1CCCCC1` [Cyclohexylamine] as the compound, how does the pKa read?
**A.** 10.64

**Q.** Which results are given for `NCCCCCN` [1,5-pentanediamine]?
**A.** pKa1: 10.25; pKa2: 9.13

**Q.** What does the source list for `CN(C)CCN(C)C` [N,N,N',N'-Tetramethyl1,2-ethanediamine]?
**A.** pKa1: 10.40; pKa2: 8.26

**Q.** For `NCCN` [Ethylenediamine (EDA), Ethylenediamine], which pKa1 is on record?
**A.** 9.92

**Q.** What about the pKa2 of the same compound?
**A.** 6.82

**Q.** What does the source list for `NCCCCCCN` [1,6-Hexanediamine]?
**A.** pKa1: 11.86; pKa2: 10.76

**Q.** With `NCCCCN` [1,4-Butanediamine] as the compound, how does the pKa read?
**A.** 10.80

**Q.** For `CC(C)(C)CN` [2,2-dimethylpropylamine], which pKa is on record?
**A.** 10.15

**Q.** Which pKa2 does the source give for `NCCCN` [1,3-propanediamine] here?
**A.** 8.88

**Q.** For `CC(N)CN` (centres unmarked) [1,2-propanediamine], which pKa1 is on record?
**A.** 9.82

**Q.** What about the pKa2 of the same compound?
**A.** 6.61

**Q.** Which pKa does the source give for `CNO` [Methylhydroxylamine] here?
**A.** 12.50
